{
  "source": "paper PMC3605511",
  "about": "“Tumor P-Glycoprotein Correlates with Efficacy of PF-3758309 in in vitro and in vivo Models of Colorectal Cancer” (Frontiers in Pharmacology, 2013)",
  "key": {"GEO": {"tested_on": "GEO", "assay": "Cell proliferation assay, GEO", "format": "cell-based", "settings": "Homo sapiens, 72 h, SRB assay", "method": "Cytotoxic/proliferation effects were determined using the sulforhodamine B (SRB) assay (Skehan et al., [1990]) or by resazurin. Briefly, cells in logarithmic growth phase were transferred to 96 well flat bottom plates with lids. One-hundred microliter cell suspensions containing 1500–5000 viable cells were plated into each well and incubated overnight prior to exposure with increasing concentrations of PF-309 for 3–5 days, dependent upon cell type. Media was removed and cells were fixed with cold 10% trichloroacetic acid for 30 min at 4°C. Cells were then washed with water and stained with 0.4% SRB (Fisher Sci., Pittsburgh, PA, USA) for 30 min at room temperature, washed again with 1% acetic acid, followed by stain solubilization with 10 mM tris at room temperature. The plate was then read on a plate reader (Biotek Synergy 2, Winooski, VT, USA) set at an absorbance wavelength of 565 nm. Cell proliferation curves were derived from the raw absorbance (OD) data.\nSince PF-309 appeared to be a strong P-gp and BCRP substrates, we sought to evaluate if the transporters influenced sensitivity in vitro. We evaluated the sensitivity of CRC cell lines to PF-309 treatment in a panel of 27 lines. Cells were exposed to PF-309 at a range of concentrations for 72 h and cell content measured by SRB assay (see Pitts et al., [2013]). […]"}, "[1]": {"assay": "End of study tumor and plasma concentrations (LC/MS/MS)", "format": "in vivo, mice", "settings": "for Plasma concentration / Tumor concentration / Tumor: plasma ratio / concentration at 1 h / Kp at 1 h: end of study, 1 h post treatment, individual animals; for Plasma concentration / Tumor concentration / concentration at 1 h: 25 mg/kg PO BID; for concentration at 1 h: po; for Kp at 1 h: tumor and plasma, read-out: Tumor: plasma ratio", "method": "Plasma and tumor samples were collected 1 h post treatment at the end of therapeutic studies or 6 h post treatment for P-gp tumor concentration studies. PF-309 was measured in mouse plasma and tumor tissue using a validated LC/MS/MS assay carried out by the University of Colorado Cancer Center Pharmacology Shared Resource. Positive ion electrospray ionization (ESI) mass spectra were obtained with a 3200 QTrap triple quadrupole mass spectrometer (Applied Biosystems Inc., Foster City, CA, USA) with a turboionspray source interfaced to an Agilent 1200 Series binary HPLC system (Agilent Technologies Inc., Santa Clara, CA, USA), and a HTC-PAL auto-sampler (LEAP Technologies, Carrboro, NC, USA). Samples were chromatographed with a Waters Sunfire 2.5 μm C18 column (4.6 × 50 mm; Waters Corp., Milford, MA, USA) with a Phenomenex C18 filter frit guard cartridge (Phenomenex, Torrance, CA, USA). The LC elution was done with a gradient starting at 10% Acetonitrile with 0.1% formic acid:90% 0.1% formic acid held for 1.5 min followed by a 1-min linear gradient to 98% Acetonitrile with 0.1% formic acid: 2% 0.1% formic acid at a flow rate of 750 μl/min and a sample volume of 50 μl. The total analysis time was 5.5 min.\nThe mass spectrometer settings were: source temperature, 600°C, ion spray voltage, 4500 V, source gas, 50, curtain gas (CUR), 10, collision gas (CAD), low, and needle position 3. Transition specific parameters used were 491.2 → 284.2/491.2 → 148.3/372.2 → 176.1: declustering potential (DP), 46.32/46.54/56.86 V, exit potential (EP), 6.45/3.23/4.08 V, collision cell entrance potential (CEP), 25.92/27.80/20.56 V, collision energy (CE), 40.00/53.10/32.75 V, collision cell exit potential (CXP), 0.42/1.47/2.72 V. Samples were quantified by the internal standard reference method in the MRM mode by monitoring for PF-3758309 transitions of m/z 491.2 → 284.2 and 491.2 → 148.3, and for the internal standard (trazodone) of m/z 372.2 → 176.1. Unknown, standard and quality control samples were extracted from mouse plasma or tumor homogenates (100 mg/ml) by the sequential addition of 5 μl 500 ng/ml internal standard (trazodone), 250 μl acetonitrile:methanol (3:1) to 50 μl plasma/tumor homogenate. Samples were then vortexed for 5 min followed by centrifugation for 10 min at 17,000 rpm. 200 μl of supernatant was then transferred to a microcentrifuge tube followed by the addition of 400 μl 0.1% formic acid followed by vortexing (5 min) and centrifugation (5 min at 13,300 rpm) and the supernatant collected (600 μl) and transferred to auto-sampler vials. The average accuracy and precision based on analysis of quality control samples was 93.1 and 98.7% for plasma samples (range: 1–2500 ng/mL) and 91.9 and 98.2% for tumor (range: 5–5000 ng/mL).\nIn addition to the cell line xenografts, we also treated 12 different patient derived tumor xenograft (PDTX) CRC models with PF-309 (Figure 6). We were unable to assess how ABCB1 gene expression correlated with efficacy in these models. The PDTX models are propagated in vivo, are not immortalized, and are not grown in in vitro culture. Therefore, we have observed some changes in ABCB1 gene expression in some of our models over time and the direction of the change is not consistent (data not shown). In lieu of analyzing gene expression profiles, we sought to determine if tumor concentration correlated with in vivo response. Tumor and plasma sample pairs were collected from animals at the end of study for eight tumor models (three cell line xenografts and five PDTX models) and concentrations of PF-309 were measured. […] Significant correlations (p < 0.003) were found between both tumor concentration and response and tumor to plasma ratios and response (Table 3)."}},
  "note": "“And” between values parts separate entries of the source, which are not always exact repeats. Equal values may be shown once. Read-outs that look alike come from different tables or passages of the source.",
  "data": [
    {"smiles": "Cc1nc(Nc2n[nH]c3c2CN(C(=O)N[C@H](CN(C)C)c2ccccc2)C3(C)C)c2sccc2n1", "note": "[PF-309]", "values": [
      {"measurement": "IC50", "setting": "GEO", "result": "> 1", "unit": "µM"},
      {"measurement": "Plasma concentration", "setting": "[1]; CUCRC006 model, 25 mg/kg", "result": 24.4, "unit": "ng/mL"},
      {"measurement": "Tumor concentration", "setting": "[1]; CUCRC006 model, 25 mg/kg", "result": 3.4, "unit": "ng/g"},
      {"measurement": "Tumor: plasma ratio", "setting": "[1]; CUCRC006 model", "result": 0.14},
      {"measurement": "Plasma concentration", "setting": "[1]; CUCRC026 model, 25 mg/kg", "result": "25.4 ng/mL and 114 ng/mL and 69.3 ng/mL and 184 ng/mL"},
      {"measurement": "Tumor concentration", "setting": "[1]; CUCRC026 model, 25 mg/kg", "result": "6.4 ng/g and 14.5 ng/g and 22.7 ng/g and 16.8 ng/g"},
      {"measurement": "Tumor: plasma ratio", "setting": "[1]; CUCRC026 model", "result": "0.25 and 0.13 and 0.33 and 0.09"},
      {"measurement": "Plasma concentration", "setting": "[1]; CUCRC036 model, 25 mg/kg", "result": "40.6 ng/mL and 110 ng/mL and 81.3 ng/mL"},
      {"measurement": "Tumor concentration", "setting": "[1]; CUCRC036 model, 25 mg/kg", "result": "65.7 ng/g and 30.7 ng/g and 47.6 ng/g"},
      {"measurement": "Tumor: plasma ratio", "setting": "[1]; CUCRC036 model", "result": "1.62 and 0.28 and 0.59"},
      {"measurement": "Plasma concentration", "setting": "[1]; CUCRC042 model, 25 mg/kg", "result": "1.17 ng/mL and 4.58 ng/mL"},
      {"measurement": "Tumor concentration", "setting": "[1]; CUCRC042 model, 25 mg/kg", "result": 29.6, "unit": "ng/g"},
      {"measurement": "Tumor: plasma ratio", "setting": "[1]; CUCRC042 model", "result": "29.8 and 6.46"},
      {"measurement": "Plasma concentration", "setting": "[1]; CUCRC047 model, 25 mg/kg", "result": 98.7, "unit": "ng/mL"},
      {"measurement": "Tumor concentration", "setting": "[1]; CUCRC047 model, 25 mg/kg", "result": 7.5, "unit": "ng/g"},
      {"measurement": "Tumor: plasma ratio", "setting": "[1]; CUCRC047 model", "result": 0.08},
      {"measurement": "Plasma concentration", "setting": "[1]; Colo201 model, 25 mg/kg", "result": 11.7, "unit": "ng/mL"},
      {"measurement": "Tumor concentration", "setting": "[1]; Colo201 model, 25 mg/kg", "result": "140.4 ng/g and 11.1 ng/g"},
      {"measurement": "Tumor: plasma ratio", "setting": "[1]; Colo201 model", "result": "6.72 and 0.95"},
      {"measurement": "Plasma concentration", "setting": "[1]; GEO model, 25 mg/kg", "result": "5.48 ng/mL and 54.1 ng/mL and 76.6 ng/mL"},
      {"measurement": "Tumor concentration", "setting": "[1]; GEO model, 25 mg/kg", "result": "10.2 ng/g and 15.9 ng/g and 22.9 ng/g"},
      {"measurement": "Tumor: plasma ratio", "setting": "[1]; GEO model", "result": "1.9 and 0.3"},
      {"measurement": "Plasma concentration", "setting": "[1]; HCT15 model, 25 mg/kg", "result": "10.0 ng/mL and 13.2 ng/mL and 49.0 ng/mL"},
      {"measurement": "Tumor concentration", "setting": "[1]; HCT15 model, 25 mg/kg", "result": "8.9 ng/g and 8.0 ng/g"},
      {"measurement": "Tumor: plasma ratio", "setting": "[1]; HCT15 model", "result": "0.68 and 0.67 and 0.16"},
      {"measurement": "Cmax", "setting": "[1]; mouse, plasma, oral, 25 mg/kg, mice, Cmax (1 h), read-out: total plasma concentrations at the Cmax", "result": "10 to 100", "unit": "nM"},
      {"measurement": "concentration at 1 h", "setting": "[1]; mouse, plasma, 25 mg/kg, CUCRC006 model, read-out: Plasma concentration", "result": 42.4, "unit": "ng/mL"},
      {"measurement": "concentration at 1 h", "setting": "[1]; mouse, plasma, 25 mg/kg, CUCRC047 model, read-out: Plasma concentration", "result": 110, "unit": "ng/mL"},
      {"measurement": "concentration at 1 h", "setting": "[1]; mouse, plasma, 25 mg/kg, Colo201 model, read-out: Plasma concentration", "result": 20.9, "unit": "ng/mL"},
      {"measurement": "Kp at 1 h", "setting": "[1]; mouse, oral, 25 mg/kg, CUCRC006 model", "result": 0.08},
      {"measurement": "Kp at 1 h", "setting": "[1]; mouse, oral, 25 mg/kg, CUCRC047 model", "result": 0.04},
      {"measurement": "concentration at 1 h", "setting": "[1]; mouse, tumor, 25 mg/kg, CUCRC006 model, read-out: Tumor concentration", "result": 3.6, "unit": "ng/g"},
      {"measurement": "concentration at 1 h", "setting": "[1]; mouse, tumor, 25 mg/kg, CUCRC042 model, read-out: Tumor concentration", "result": 34.8, "unit": "ng/g"},
      {"measurement": "concentration at 1 h", "setting": "[1]; mouse, tumor, 25 mg/kg, CUCRC047 model, read-out: Tumor concentration", "result": 4.4, "unit": "ng/g"},
      {"measurement": "concentration at 1 h", "setting": "[1]; mouse, tumor, 25 mg/kg, HCT15 model, read-out: Tumor concentration", "result": 6.8, "unit": "ng/g"}
    ]}
  ]
}
